Assay results from patent US20170291890A1 (Epizyme, Inc., priority 2014, published 2017).

How the values were obtained:
[1] = Solubility remark in Table 2 (compound insoluble, no IC50 given); assay type: physicochemical; conditions: Table 2, cell in place of 4A/4C/5A IC50
KDM5A = molecular target: T1, KDM5A (Homo sapiens, UniProt P29375); assay: KDM5A Assay (SAMDI mass spectrometry demethylase assay); assay type: biochemical; conditions: C-terminal FLAG-tagged KDM5A 1-1090; class symbols; read-out: 5A IC50
T1 construct: C-terminal FLAG-tagged KDM5A^1-1090 was purchased from BPS Biosciences; FLAG (C); purchased BPS Biosciences
T1 sequence (P29375 1-1090): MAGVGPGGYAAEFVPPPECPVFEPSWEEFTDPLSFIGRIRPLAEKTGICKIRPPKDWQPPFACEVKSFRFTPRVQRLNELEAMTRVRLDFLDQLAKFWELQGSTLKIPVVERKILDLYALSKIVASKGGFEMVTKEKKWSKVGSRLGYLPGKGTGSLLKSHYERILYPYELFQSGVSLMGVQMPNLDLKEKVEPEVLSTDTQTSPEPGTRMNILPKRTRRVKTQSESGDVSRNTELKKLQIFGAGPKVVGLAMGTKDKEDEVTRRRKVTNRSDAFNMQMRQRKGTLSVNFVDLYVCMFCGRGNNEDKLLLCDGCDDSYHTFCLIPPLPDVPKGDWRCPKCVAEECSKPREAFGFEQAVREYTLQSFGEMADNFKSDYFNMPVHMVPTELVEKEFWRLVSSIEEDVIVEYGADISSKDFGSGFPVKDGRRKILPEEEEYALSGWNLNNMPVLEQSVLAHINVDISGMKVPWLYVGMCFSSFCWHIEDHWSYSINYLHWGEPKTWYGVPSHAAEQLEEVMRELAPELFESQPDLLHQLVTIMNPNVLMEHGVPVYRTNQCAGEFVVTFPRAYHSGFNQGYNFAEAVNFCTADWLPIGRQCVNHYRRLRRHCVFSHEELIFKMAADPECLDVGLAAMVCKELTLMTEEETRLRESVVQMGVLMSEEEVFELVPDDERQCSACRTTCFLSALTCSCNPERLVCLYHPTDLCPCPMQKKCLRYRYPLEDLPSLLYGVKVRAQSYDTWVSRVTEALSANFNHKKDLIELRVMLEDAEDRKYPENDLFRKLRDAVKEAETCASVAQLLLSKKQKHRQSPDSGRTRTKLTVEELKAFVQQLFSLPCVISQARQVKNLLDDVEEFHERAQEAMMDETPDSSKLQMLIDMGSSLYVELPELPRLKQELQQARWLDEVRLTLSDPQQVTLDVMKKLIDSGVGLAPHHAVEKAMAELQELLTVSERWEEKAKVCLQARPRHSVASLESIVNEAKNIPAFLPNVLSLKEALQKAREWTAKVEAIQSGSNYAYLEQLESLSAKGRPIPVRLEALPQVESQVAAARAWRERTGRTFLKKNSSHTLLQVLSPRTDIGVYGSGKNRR
Description: (§1) C-terminal FLAG-tagged KDM5A^1-1090 was purchased from BPS Biosciences. Peptides were synthesized by BioPeptide and all other reagents were purchased from Sigma-Aldrich at the highest level of purity possible. Assays were performed in a 50 μL volume in 384-well V-bottom polypropylene microplates (Greiner) at 25° C. Optimized 1× assay buffer was 50 mM HEPES (pH=8.0), 100 μM sodium ascorbate, 20 mM NaCl, 10 μM ammonium iron sulfate, 1 mM tris(2-carboxyethyl)phosphine (TCEP), 0.002% Tween-20, and 0.005% BSG. For compound screening, 35 μL of KDM5A^1-109° (final concentration, f.c.=20 nM) was added using a Multidrop Combi and preincubated with 1 μL of test compound (f.c.=10 μM) for 30 minutes and subsequently 15 μL of peptide with the following sequence NH2-ART[Kme-3]QTARKSTGGKA[K-Ahx-Biot]-amide (f.c.=250 nM) and 2-oxoglutarate (f.c.=15 μM) was added by Multidrop Combi to begin the reaction. Reactions proceeded for 150 minutes and were stopped by the addition of 5 μL of formic acid (f.c.=0.5%) using a Multidrop Combi and then analyzed by SAMDI Tech Inc.
(§2) SAMDI Tech analyzed all reactions using self-assembled monoloayer desorption/ionization technology as previously described (Gerard-Levin Z A, Scholle M D, Eisenberg A H, et al.: High-throughput screening of small molecule libraries using SAMDI mass spectrometry. ACS Comb Sci 2011; 13:347-350). Briefly, a 2 μL sample of the stopped demethylase reactions were transferred to a SAMDI array coated with 384 biotin-neutravidin spots using a 384-channel pipet station. The SAMDI arrays were incubated for 1 h in a humidified chamber, followed by washing of the surface with deionized ultra-filtered water (DIUF) and drying under nitrogen. A matrix of 30 mg/ml 2′,4′,6′-Trihydroxyacetophenone monohydrate (THAP) in acetone was applied using a TPP Mosquito 1.2 μL tip by dispensing 50 nL on each of the 384 spots on the array. SAMDI-MS was run using acquisition method ReflectorPositiveUTX. The % conversion of substrate to product was calculated using the AUC of the substrate and product peptide peaks.
(§3) An IC50 value was determined by contacting various concentrations of a test compound with one of the KDM4A, KDM4C or KDMSC enzyme constructs and plotting a dose-response curve which associates the amount of inhibition of the enzyme relative to the concentration of the test compound. From the curve, the IC50 value (which represents the concentration of the test compound necessary to inhibit maximal enzymatic activity by 50%) was determined. Additionally, the slope of the linear range of the plotted curve, which indicates the speed with which the curve rises between the minimum and maximum, was calculated.

KDM4C = molecular target: T2, KDM4C (Homo sapiens, UniProt Q9H3R0); assay: KDM4C Assay (SAMDI mass spectrometry demethylase assay); assay type: biochemical; conditions: N-terminal GST-tagged KDM4C 2-372; class symbols; read-out: 4C IC50
T2 construct: N-terminal GST-tagged KDM4C^2-372 was purchased from BPS Biosciences; GST (N); purchased BPS Biosciences
T2 sequence (Q9H3R0 2-372): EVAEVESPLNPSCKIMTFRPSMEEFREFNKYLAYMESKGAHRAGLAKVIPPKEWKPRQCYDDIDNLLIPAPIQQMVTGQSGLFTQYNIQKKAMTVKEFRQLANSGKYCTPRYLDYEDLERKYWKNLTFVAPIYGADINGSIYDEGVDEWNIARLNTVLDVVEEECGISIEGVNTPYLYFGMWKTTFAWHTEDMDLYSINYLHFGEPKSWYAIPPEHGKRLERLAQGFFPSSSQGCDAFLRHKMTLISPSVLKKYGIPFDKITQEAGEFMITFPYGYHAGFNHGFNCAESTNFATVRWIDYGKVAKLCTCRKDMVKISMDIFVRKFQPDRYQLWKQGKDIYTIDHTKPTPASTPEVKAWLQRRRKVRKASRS
Description: as §1, with “N-terminal GST-tagged KDM4C^2-372” for “C-terminal FLAG-tagged KDM5A^1-1090”, “KDM4C^2-372” for “KDM5A^1-109°”, “f.c.=5” for “f.c.=20”, “NH2-ARTKQTAR(Kme3)STGGKAPRKQLA(K-Ahx-Biotin)-amide (f.c.=500” for “NH2-ART[Kme-3]QTARKSTGGKA[K-Ahx-Biot]-amide (f.c.=250”
as §2, §3

| SMILES | Solubility remark given instead of IC50 values [1] | IC50 (KDM5A) | IC50 (KDM4C) |
| --- | --- | --- | --- |
| Cc1ccccc1-n1ncc(Nc2cnccc2C(=O)O)c1C [Compound 50, 3-((5-methyl-1-(o-tolyl)-1H-pyrazol-4-yl)amino)isonicotinic acid] | Insoluble |  |  |
| Cc1c(Nc2cnccc2C(=O)O)nn(C)c1-c1ccccc1 [Compound 54, 3-((1,4-dimethyl-5-phenyl-1H-pyrazol-3-yl)amino)isonicotinic acid] | Insoluble |  |  |
| O=C(O)c1ccncc1Nc1nn(C2CCNCC2)cc1-c1ccccc1 [Compound 129, 3-(4-phenyl-1-(piperidin-4-yl)-1H-pyrazol-3-ylamino) isonicotinic acid] |  | 1 to 100 nM | 100 to 1000 nM |
| Cc1c(Nc2cnccc2C(=O)O)cnn1C1CCN(c2ccccc2)CC1 [Compound 106, 3-(5-methyl-1-(1-phenylpiperidin-4-yl)-1H-pyrazol-4-ylamino)isonicotinic acid] |  | 1000 to 10000 nM | 1 to 100 nM |
| Cn1nc(-c2ccncc2)cc1Nc1cnccc1C(=O)O [Compound 44, 3-((1-methyl-3-(pyridin-4-yl)-1H-pyrazol-5-yl)amino) isonicotinic acid] | Insoluble |  |  |
